Test results reported in article PMC12643354, “From Oxygen to Tellurium: The Impact of the Chalcogen on Nucleophilicities and Basicities of Isochalcogenourea Catalysts” (Angewandte Chemie (International Ed. in English), 2025).
Read-outs that look alike come from different tables or passages of the source. Marks after values point to notes of the source that are not given here.

Experiments:
[1] = set-up: method as in PMID 21568333; conditions: (ind)2CH+, E = −8.76, dichloromethane, 20 °C; cited from earlier work
[2] = set-up: method as in PMID 21568333; conditions: (thq)2CH+, E = −8.22, dichloromethane, 20 °C; cited from earlier work
[3] = set-up: method as in PMID 21568333; conditions: (pyr)2CH+, E = −7.69, dichloromethane, 20 °C; cited from earlier work
[4] = set-up: method as in PMID 21568333; conditions: (dma)2CH+, E = −7.02, dichloromethane, 20 °C; cited from earlier work
[5] = dichloromethane, 20 °C; cited from earlier work
[6] = in dichloromethane, 20 °C; cited from earlier work
[7] = in methanolic aqueous solution (1:5-mixture); cited from earlier work
[8] = Kinetics of IChU reactions with reference electrophile (lil)2CH+ (stopped-flow photometry); assay type: physicochemical; conditions: E = −10.04, dichloromethane, 20 °C
Source text: (§1) In order to systematically investigate the influence of the chalcogen atom on the nucleophilicity of DHPB‐derived IChUs (Ch = O, S, Se, and Te), we utilized Mayr's benzhydrylium methodology.^[ [107] ^]
In accordance with observations in previous studies on ITU reactivity,^[ [119] ^] mixing the strongly colored benzhydrylium tetrafluoroborates 18 with excess IChUs in dichloromethane gave rise to decolorization of the solutions due to the formation of isochalcogenouronium tetrafluoroborates 19, which are colourless (Figure 3a). […] To establish pseudo first‐order conditions and to secure a sufficient decay of the benzhydrylium's absorbance during the course of the reactions, the IChUs were employed at higher concentrations than the benzhydrylium ions. First‐order rate constants k obs (s^−1) were determined by fitting the mono‐exponential decay function in Equation (2) to the decreasing absorbance (A) of 18 during their reaction with the IChUs as exemplified for the reaction of ITeU3 with (ind)2CH^+ in Figure 3b. […]
First‐order rate constants k obs correlated linearly with the IChU concentration. Therefore, second‐order rate constants k 2 (L mol^−1 s^−1) were determined from the slope of the linear regression curves (Figure 3c ^[ [95] ^]). […]

[9] = Kinetics of IChU reactions with reference electrophile (ind)2CH+ (stopped-flow photometry); assay type: physicochemical; conditions: E = −8.76, dichloromethane, 20 °C
Source text: as §1
(§2) In accordance with observations in previous studies on ITU reactivity,^[ [119] ^] mixing the strongly colored benzhydrylium tetrafluoroborates 18 with excess IChUs in dichloromethane gave rise to decolorization of the solutions due to the formation of isochalcogenouronium tetrafluoroborates 19, which are colourless (Figure 3a). Owing to reversibility of the C─N bond formation, generated adducts 19 from the IChU/benzhydrylium reactions were not isolated but characterized by ^1H, ^13C, and ^77Se NMR spectroscopy (the ^77Se nucleus is remarkably sensitive with observed changes of around 100 ppm when comparing the ^77Se resonances of free ISeUs with those of the corresponding selenouronium tetrafluoroborates^[ [95] ^]). The kinetics of the IChU reactions with the reference electrophiles 18 were traced by photometric methods using standard stopped‐flow techniques. To establish pseudo first‐order conditions and to secure a sufficient decay of the benzhydrylium's absorbance during the course of the reactions, the IChUs were employed at higher concentrations than the benzhydrylium ions. First‐order rate constants k obs (s^−1) were determined by fitting the mono‐exponential decay function in Equation (2) to the decreasing absorbance (A) of 18 during their reaction with the IChUs as exemplified for the reaction of ITeU3 with (ind)2CH^+ in Figure 3b. (2) A=A0e^−kobst+C […]
(§3) First‐order rate constants k obs correlated linearly with the IChU concentration. Therefore, second‐order rate constants k 2 (L mol^−1 s^−1) were determined from the slope of the linear regression curves (Figure 3c ^[ [95] ^]). Second‐order rate constants k 2 for all kinetically investigated reactions of DHPB‐derived IChUs (Ch = O, S, Se, and Te) with benzhydrylium ions 18 are gathered in Table 1.
(§4) Apart from CH2Cl2 also MeCN and THF are solvents that are commonly employed in reactions involving isochalcogenoureas. […]

[10] = Kinetics of IChU reactions with reference electrophile (pyr)2CH+ (stopped-flow photometry); assay type: physicochemical; conditions: E = −7.69, dichloromethane, 20 °C
Source text: as §1, §2, §3, §4

[11] = Kinetics of IChU reactions with reference electrophile (dma)2CH+ (stopped-flow photometry); assay type: physicochemical; conditions: E = −7.02, dichloromethane, 20 °C
Source text: as §1, §2, §3, §4

[12] = Mayr nucleophilicity parameters N and sN (benzhydrylium methodology, Mayr-Patz equation); assay type: physicochemical; conditions: dichloromethane, 20 °C
Source text: (1) Mayr-Patz Equation: lgk20^∘C=sN(N+E)
The MPE is a linear‐free‐energy relationship that characterizes electrophiles by the electrophilicity parameter E and nucleophiles by the solvent‐dependent parameters N (nucleophilicity) and s N (sensitivity toward changes in the electrophile reactivity). By using the MPE (Equation (1)), the construction of comprehensive nucleophilicity and electrophilicity scales becomes possible, which facilitate the comparison of various classes of Lewis base organocatalysts.^[ [110], [111], [112], [113], [114], [115], [116], [117], [118], [119], [120] ^]
as §1
Figure 4 illustrates the linear correlations of the second‐order rate constants (lg k 2) with the electrophilicities E of Ar2CH^+ (18), which makes it possible to determine the Mayr nucleophilicity parameters N (and s N) for the DHPB‐derived IChUs IU3, ITU3, ISeU3, and ITeU3. […]
Figure 4 Linear correlations of second‐order rate constants (lg k 2) for the reactions of IU3, ITU3, ISeU3, and ITeU3 with Ar2CH^+ 18 (in dichloromethane at 20 °C) with the electrophilicities E of 18. The slopes of the linear correlations equal the nucleophile‐dependent sensitivity parameter s N. Intercepts on the abscissa reflect the nucleophilicity parameter N (N = –E at lg k 2 = 0).

[13] = Brønsted basicity pKaH by chemical shift imaging NMR method in DMSO and MeCN
Protocol: Recently, Wiskur's group reported potentiometrically determined pK aH values (that is, the pK a of the conjugate acids) of achiral ITUs based on the BTM and DHPB scaffolds in aqueous media.^[ [89], [128] ^] […] In this work, we applied this NMR spectroscopic method to determine the pK aH values of further IChUs in DMSO and MeCN (Supporting Information).
First, a stock solution containing the analyte, two basic indicators and tetramethyl silane was prepared with the respective solvent (DMSO or acetonitrile).
Then 5-10 mg of acid were weighed into a NMR tube and subsequently covered with glass beads.
Figure S50: 5-10 mg of acid in Figure S51: Cover with 1 mm
Afterwards, 550 μL of the stock solution was layered carefully over the glass beads and the acid. The sample is then put in a 28 °C water bath (for DMSO) for 20 - 24h or left on the bench at 22 °C (for acetonitrile) for 1.5 - 2 h and then the NMR measurement was carried out at 20 °C.
Figure S52: Overlay the acid with the Figure S54: Visualized gradient after stock solution of two indicators and the 18h in DMSO (with Bromthymolblue) […]
Figure S53: Development of gradients in temperated water S145 […]
13.4 Indicator and Acid Data
Table S67: Limiting shifts (δH for the fully protonated and δL for the free base), pKas and abbreviations of indicators and acids in acetonitrile.
Table S68: Limiting shifts (δH for the fully protonated and δL for the free base), pKas and abbreviations of indicators

[14] = Lewis basicity LB from equilibrium constants (photometric titrations) with benzhydrylium ions as reference Lewis acids; assay type: physicochemical; conditions: in dichloromethane, 20 °C
Protocol: (a) Lewis basicity. Previously, the Mayr group established a series of benzhydrylium ions as C‐centered Lewis acid references to construct a Lewis basicity scale in dichloromethane. Substituting experimentally determined equilibrium constants K (at 20 °C) and reported Lewis acidities LA for the benzhydrylium ions (Figure 7) in Equation (3) enables one to calculate the Lewis basicity (LB) of a Lewis base.^[ [121], [127] ^] (3) lgK(20^∘C)=LA+LB
The reversibility of the formation of adducts 19 (Equation (4)), which was also apparent in the kinetics by significant positive intercepts in several of the k obs versus [IChU] plots (Supporting Information), provided the opportunity to probe the thermodynamics of the C‐N bond‐forming reactions of IChUs with benzhydrylium ions as the reference Lewis acids in more detail.^[ [95] ^] (4) IChU+Ar2CH^+(18)⇌Ar2CH-IChU^+(19)
By assuming the validity of the Beer–Lambert law for dilute solutions, equilibrium constants K (L mol^−1) were determined in photometric titrations according to Equation (5) from the initial absorbance (A 0) of the benzhydrylium ions 18 and the absorbance at equilibrium (A, Equation 5), that is, after addition of a certain amount of an IChU.^[ [109], [110], [111], [112], [113], [114], [115], [119] ^] (5) K=[19]/[18]IChU=A0−A/AIChU

c1ccc2c(c1)SC1=NCCCN12 [ITU3, DHPB]
Second-order rate constant k2 exptl [1]: 1.11 × 10^4 ^a) L mol^−1 s^−1
Second-order rate constant k2 exptl [2]: 2.07 × 10^4 ^a) L mol^−1 s^−1
Second-order rate constant k2 exptl [3]: 7.49 × 10^4 ^a) L mol^−1 s^−1
Second-order rate constant k2 exptl [4]: 2.29 × 10^5 ^a) L mol^−1 s^−1
Nucleophile-specific sensitivity parameter sN [5]: 0.78
Nucleophilicity parameter N [5]: 13.86
Lewis basicity LB [6]: 15.39
Brønsted basicity pKaH(H2O) [7]: 9.9 ^c)

c1ccc2c(c1)[Te]C1=NCCCN12 [ITeU3, TeDHPB]
Second-order rate constant k2 exptl [8]: 19400 M⁻¹ s⁻¹
Second-order rate constant k2 exptl [9]: 127000 M⁻¹ s⁻¹
Second-order rate constant k2 exptl [10]: 731000 M⁻¹ s⁻¹
Second-order rate constant k2 exptl [11]: 1.67e+06 M⁻¹ s⁻¹
Nucleophile-specific sensitivity parameter sN [12]: 0.65
Nucleophilicity parameter N [12]: 16.63
Brønsted basicity pKaH(DMSO) ([13]; in DMSO): 11.0
Brønsted basicity pKaH(MeCN) ([13]; in MeCN): 19.7
Lewis basicity LB [14]: 17.13
